Source: patent US20090298857A1, “Treatment of Neurodegenerative Diseases Through Inhibition of HSP90” (SLOAN-KETTERING INSTITUTE FOR CANCER RESEARCH, priority 2006, published 2009)
Where two headings read alike, the source gives them in different places.

Tests used:
[1] = target: P-glycoprotein (Homo sapiens, UniProt P08183); conditions: known Hsp90 inhibitor, cited from earlier work
[2] = system: p35 in primary neurons, COS-7/p35 and COS-7/p35/Tau cells; assay: p35 degradation and Tau phosphorylation in primary neurons and transfected COS-7 cells; type: cell-based, rat; conditions: compared with PU24FC1
Description: To further examine the roles played by Hsp90 in tauopathy, we made use of both PU24FC1 and 17-(allyllamino)-17-demethoxygeldanamycin (17AAG) and investigated their effects on both cdk5/p35 and TauP301L in primary neuronal and COS-7 cell cultures. Primary neuronal cultures were derived from the cerebral cortices of embryonic day 17 rat embryos and maintained as described previously (105). To determine the effects of PU24FC1 on protein steady-states and on Tau phosphorylation, PU24FC1 was added at day 6 of culture, and cells were incubated at 37° C. as indicated. […] After incubation, cells were harvested and lysed in 2% SDS, and the resulting samples were analyzed by Western blotting.
Phosphorylation of Tau by cdk5 is initiated through activation by complex formation with one of the neuron-specific proteins p35 or p39. […] In concordance, we assessed the influence of Hsp90 inhibition on p35 cellular expression. A dose- and time-dependent degradation of p35 by PU24FC1 was detected in primary neurons by immunoblot and by immunofluorescence techniques, as well as in COS-7/p35 and COS-7/p35/Tau cells. […]
We detected a dose- and time-dependent degradation of p35 by PU24FC1 in primary neurons, as well as in COS-7/p35 and COS-7/p35/Tau cells. […] Reduction of p35 levels by Hsp90 inhibition affected the activity of the cdk5/p35 complex, as measured using a substrate of cdk5, the histone-H1. […]

[3] = known Hsp90 inhibitors; cited from earlier work

Chain of P-glycoprotein (P08183 whole entry): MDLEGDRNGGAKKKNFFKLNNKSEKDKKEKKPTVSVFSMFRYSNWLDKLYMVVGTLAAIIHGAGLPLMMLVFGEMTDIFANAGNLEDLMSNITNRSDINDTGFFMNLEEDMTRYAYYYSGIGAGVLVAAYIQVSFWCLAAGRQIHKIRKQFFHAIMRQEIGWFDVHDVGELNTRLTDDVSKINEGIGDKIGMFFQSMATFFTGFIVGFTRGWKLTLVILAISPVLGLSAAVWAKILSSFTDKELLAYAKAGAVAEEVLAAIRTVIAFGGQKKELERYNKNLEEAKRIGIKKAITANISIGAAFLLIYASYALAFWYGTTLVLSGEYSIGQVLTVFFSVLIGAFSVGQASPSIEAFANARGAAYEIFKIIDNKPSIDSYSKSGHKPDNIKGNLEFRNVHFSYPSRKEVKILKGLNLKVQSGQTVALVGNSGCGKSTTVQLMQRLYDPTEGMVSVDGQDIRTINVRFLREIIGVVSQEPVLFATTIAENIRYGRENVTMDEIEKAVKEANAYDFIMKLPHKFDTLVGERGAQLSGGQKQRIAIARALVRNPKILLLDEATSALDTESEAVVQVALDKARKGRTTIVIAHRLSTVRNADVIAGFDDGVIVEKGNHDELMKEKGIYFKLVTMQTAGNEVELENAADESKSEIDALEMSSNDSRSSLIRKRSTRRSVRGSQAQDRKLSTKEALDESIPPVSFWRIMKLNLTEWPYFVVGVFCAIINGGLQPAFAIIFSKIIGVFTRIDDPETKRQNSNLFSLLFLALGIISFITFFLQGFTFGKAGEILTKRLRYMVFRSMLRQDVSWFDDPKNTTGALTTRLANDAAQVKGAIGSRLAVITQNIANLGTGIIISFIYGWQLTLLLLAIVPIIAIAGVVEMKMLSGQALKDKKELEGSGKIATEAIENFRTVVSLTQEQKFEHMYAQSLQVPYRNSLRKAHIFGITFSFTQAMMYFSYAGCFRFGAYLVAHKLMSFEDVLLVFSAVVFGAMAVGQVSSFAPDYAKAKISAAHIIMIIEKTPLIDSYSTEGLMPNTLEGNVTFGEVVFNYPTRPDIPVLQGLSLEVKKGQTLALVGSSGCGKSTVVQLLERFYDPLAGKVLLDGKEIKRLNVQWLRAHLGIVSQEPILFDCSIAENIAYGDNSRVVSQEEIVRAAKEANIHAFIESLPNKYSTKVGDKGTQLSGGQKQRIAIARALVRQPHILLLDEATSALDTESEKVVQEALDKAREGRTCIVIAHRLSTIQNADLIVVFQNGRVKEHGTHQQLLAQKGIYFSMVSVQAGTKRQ

In the case of `C=CCNC1=C2C[C@@H](C)C[C@H](OC)[C@H](O)[C@@H](C)/C=C(\C)[C@H](OC(N)=O)[C@@H](OC)/C=C\C=C(/C)C(=O)NC(=CC1=O)C2=O` [Compound 17AAG, 17-(allyllamino)-17-demethoxygeldanamycin], the P-gp substrate [1] is listed as “is a P-gp substrate”, the P-gp substrate ([1]; listed as 17-AAG) is listed as “is a P-glycoprotein substrate” and the “effects on p35 and mTau” value [2] is listed as “Analogous effects”. For the same compound, the solubility [3] was “poorly soluble”.
In the case of `COC1=C2C[C@@H](C)C[C@H](OC)[C@H](O)[C@@H](C)/C=C(\C)[C@H](OC(N)=O)[C@@H](OC)/C=C\C=C(/C)C(=O)NC(=CC1=O)C2=O` [geldanamycin], the solubility [3] is given as “poorly soluble”.
In the case of `C[C@@H]1C[C@H]2O[C@@H]2/C=C\C=C\C(=O)Cc2c(Cl)c(O)cc(O)c2C(=O)O1` [radicicol], the solubility [3] is given as “poorly soluble”.
